Key:
A2780 and SKOV3 cells = experiment: Cell-migration (wound-healing) assay; assay type: cell-based, human; details: 10 μM
Description: Cell-migration assay was performed by wound-healing method. Cells were plated at equal density and grown to 90% confluence. Wounds were created using a sterile pipette tip. Cells were then rinsed with medium and replaced with the fresh medium and incubated with HO-3867 (10 μM). Areas of wound were marked and photographed at various time-points with a phase-contrast microscope. Cell-invasive assay was measured by an in vitro Boyden chamber assay. Briefly, 1×10^5 cells in 0.5 ml of serum-free RPMI 1640 medium were added to the wells of 8-μm-diameter pore membrane Boyden chambers, either coated with (BD Biosciences, Franklin Lake, N.J.) or without (Corning, Corning, N.Y.) Matrigel. Cells were allowed to invade for 24 hours. Cells that had not penetrated the filters were removed by scrubbing with cotton swabs. Chambers were fixed in 100% methanol for 2 min, stained in 0.5% crystal violet for 2 min, rinsed in PBS and examined using a bright-field microscope. Values for invasion were obtained by counting five fields per membrane and represented as the average of three independent experiments performed over multiple days.

[1] = system: hOSE cells, HSMC, and HAEC; experiment: Cytotoxicity of DAPs to noncancerous cells (MTT); assay type: cell-based, human
Description: (§1) Cell viability was determined by a colorimetric assay using MTT. In the mitochondria of living cells, yellow MTT undergoes a reductive conversion to formazan, giving a purple color. Cells, grown to […] confluence in 75-mm flasks, were trypsinized, counted, seeded in 96-well plates with an average population of 7000 cells/well, incubated overnight, and then treated with the DAPs (H-4073, HO-3867, H4318, or HO-4200; […]) for 24 h. All experiments were done using eight replicates and repeated at least three times. Cell viability was expressed as the percentage of MIT viability of untreated cells.

[2] = system: A2780, A2780R, MCF-7, HCT-116, PC-3, HepG2, A549, and SCC4 human cancer cell lines; experiment: Cytotoxicity of DAPs to cancer cells (MTT); assay type: cell-based; details: 10 μM, 24 h
Description: as §1

[3] = system: A2780 xenograft tumor tissue; experiment: Immunoblot analysis of excised xenograft tumor tissue (JAK/STAT3, targets, apoptosis); assay type: in vivo, BALB/c nude mice
Description: Cells in RPMI 1640 were treated with DMSO (control) or HO-3867 (10 μmol/L) for 24 hours. Equal volumes of DMSO (0.1% v/v) were present in each treatment. Following treatment, the cell lysates were prepared in non-denaturing lysis buffer containing 10 mmol/L Tris-HCl (pH 7.4), 150 mmol/L NaCl, 1% Triton X-100, 1 mmol/L EDTA, 1 mmol/L EGTA, 0.3 mmol/L phenylmethyl-sulfonyl fluoride, 0.2 mmol/L sodium orthovanadate, 0.5% NP40, 1 μg/mL aprotinin, and 1 μg/mL leupetin. The lysates were centrifuged at 10,000×g for 20 minutes at 4° C. and the supernatant was separated. The protein concentration in the lysates was determined using a Pierce detergent-compatible protein assay kit. For Western blotting, 25 to 50 μg of protein lysate per sample were denatured in 2×SDS-PAGE sample buffer and subjected to SDS-PAGE on a 10% tris-glycine gel. The separated proteins were transferred to a polyvinylidene fluoride membrane and were blocked with 5% nonfat milk powder (w/v) in TBST (10 mmol/L Tris, 10 mmol/L NaCl, 0.1% Tween 20) for 1 hour at room temperature or overnight at 4° C. The membranes were then incubated with the primary antibodies. The bound antibodies were detected with horseradish peroxidase-labeled sheep anti-mouse IgG or horseradish peroxidase-labeled donkey anti-rabbit IgG using an enhanced chemiluminescence detection system (ECL Advanced kit). Protein expressions were determined using the Image Gauge v. 3.45 software.
Cultured A2780 cancer cells (2×10^6 cells in […] of PBS) were s.c. injected into the back of 6-week-old BALB/c nude mice from the National Cancer Institute. Five to 7 days later, when the tumors reached 3 to 5 mm in diameter, the mice were divided (n=9/group) in a manner to equalize the mean tumor diameter among the groups. The control group was given a normal diet (no treatment), whereas the experimental groups were treated using the DAP compounds mixed with the animal feed (Harlan Teklad) at three different levels (25, 50, and 100 ppm). The doses were chosen based on an initial dose-response study optimized to produce an observable effect on tumor growth. The size of the tumor was measured twice per week using a digital Vernier caliper. The tumor volume was determined from the orthogonal dimensions (d1, d2, d3) using the formula (d1×d2×d3)×π/6. Thirty five days after the beginning of HO-3867 treatment, the mice were sacrificed and the tumors were resected. The tumor tissues were then subjected to immunoblot analysis.

[4] = Superoxide radical-scavenging by EPR (xanthine/xanthine oxidase, DEPMPO competition); details: 100 μM compound versus 1 mM DEPMPO
Description: Electron paramagnetic resonance (EPR) spectroscopy was used to quantitatively determine the relative superoxide-scavenging ability of the DAPs in comparison with DEPMPO, a known superoxide scavenger. Superoxide radicals were generated using an aerated solution of PBS (pH 7.4) containing xanthine (0.2 mM), xanthine oxidase (0.02 U/ml), and diethylenetriamine pentaacetic acid (0.1 mM). The superoxide radicals (O2^−) generated by the xanhine-xanthine oxidase reaction were reacted with DEPMPO (1 mM) to form a paramagnetic adduct (DEPMPO-OOH), which was detected using X-band (9.8 GHz) EPR spectroscopy. In separate experimental groups, […], or SOD (500 U/ml) was added to the reaction mixture. […] The generation of the DEPMPO-OOH adduct was measured at 10 min after initiation of the reaction.
Both N-hydroxypyrroline and nitroxide have antioxidant properties including SOD- and catalase-mimetic activity. Therefore, we determined the superoxide radical-scavenging ability of DAPs using a competitive reaction in the presence of DEPMPO. Superoxide radicals were generated using an aerobic solution of xanthine and xanthine oxidase and detected as DEPMPO-OOH adduct by EPR spectroscopy. The DAP compounds (100 μM) were used to compete with 1 mM DEPMPO for the superoxide ions. SOD (4.2 μM) was used as a positive control.

[5] = target: T1, FAS in A2780 and SKOV3 cells (Homo sapiens, UniProt P49327); experiment: Fatty acid synthase activity assay; assay type: cell-based; details: 10 μM, 12 or 24 h, both cell lines
T1 construct: endogenous in cells; host or cells: A2780 and SKOV3 human ovarian cancer cells
T1 sequence (P49327 whole entry): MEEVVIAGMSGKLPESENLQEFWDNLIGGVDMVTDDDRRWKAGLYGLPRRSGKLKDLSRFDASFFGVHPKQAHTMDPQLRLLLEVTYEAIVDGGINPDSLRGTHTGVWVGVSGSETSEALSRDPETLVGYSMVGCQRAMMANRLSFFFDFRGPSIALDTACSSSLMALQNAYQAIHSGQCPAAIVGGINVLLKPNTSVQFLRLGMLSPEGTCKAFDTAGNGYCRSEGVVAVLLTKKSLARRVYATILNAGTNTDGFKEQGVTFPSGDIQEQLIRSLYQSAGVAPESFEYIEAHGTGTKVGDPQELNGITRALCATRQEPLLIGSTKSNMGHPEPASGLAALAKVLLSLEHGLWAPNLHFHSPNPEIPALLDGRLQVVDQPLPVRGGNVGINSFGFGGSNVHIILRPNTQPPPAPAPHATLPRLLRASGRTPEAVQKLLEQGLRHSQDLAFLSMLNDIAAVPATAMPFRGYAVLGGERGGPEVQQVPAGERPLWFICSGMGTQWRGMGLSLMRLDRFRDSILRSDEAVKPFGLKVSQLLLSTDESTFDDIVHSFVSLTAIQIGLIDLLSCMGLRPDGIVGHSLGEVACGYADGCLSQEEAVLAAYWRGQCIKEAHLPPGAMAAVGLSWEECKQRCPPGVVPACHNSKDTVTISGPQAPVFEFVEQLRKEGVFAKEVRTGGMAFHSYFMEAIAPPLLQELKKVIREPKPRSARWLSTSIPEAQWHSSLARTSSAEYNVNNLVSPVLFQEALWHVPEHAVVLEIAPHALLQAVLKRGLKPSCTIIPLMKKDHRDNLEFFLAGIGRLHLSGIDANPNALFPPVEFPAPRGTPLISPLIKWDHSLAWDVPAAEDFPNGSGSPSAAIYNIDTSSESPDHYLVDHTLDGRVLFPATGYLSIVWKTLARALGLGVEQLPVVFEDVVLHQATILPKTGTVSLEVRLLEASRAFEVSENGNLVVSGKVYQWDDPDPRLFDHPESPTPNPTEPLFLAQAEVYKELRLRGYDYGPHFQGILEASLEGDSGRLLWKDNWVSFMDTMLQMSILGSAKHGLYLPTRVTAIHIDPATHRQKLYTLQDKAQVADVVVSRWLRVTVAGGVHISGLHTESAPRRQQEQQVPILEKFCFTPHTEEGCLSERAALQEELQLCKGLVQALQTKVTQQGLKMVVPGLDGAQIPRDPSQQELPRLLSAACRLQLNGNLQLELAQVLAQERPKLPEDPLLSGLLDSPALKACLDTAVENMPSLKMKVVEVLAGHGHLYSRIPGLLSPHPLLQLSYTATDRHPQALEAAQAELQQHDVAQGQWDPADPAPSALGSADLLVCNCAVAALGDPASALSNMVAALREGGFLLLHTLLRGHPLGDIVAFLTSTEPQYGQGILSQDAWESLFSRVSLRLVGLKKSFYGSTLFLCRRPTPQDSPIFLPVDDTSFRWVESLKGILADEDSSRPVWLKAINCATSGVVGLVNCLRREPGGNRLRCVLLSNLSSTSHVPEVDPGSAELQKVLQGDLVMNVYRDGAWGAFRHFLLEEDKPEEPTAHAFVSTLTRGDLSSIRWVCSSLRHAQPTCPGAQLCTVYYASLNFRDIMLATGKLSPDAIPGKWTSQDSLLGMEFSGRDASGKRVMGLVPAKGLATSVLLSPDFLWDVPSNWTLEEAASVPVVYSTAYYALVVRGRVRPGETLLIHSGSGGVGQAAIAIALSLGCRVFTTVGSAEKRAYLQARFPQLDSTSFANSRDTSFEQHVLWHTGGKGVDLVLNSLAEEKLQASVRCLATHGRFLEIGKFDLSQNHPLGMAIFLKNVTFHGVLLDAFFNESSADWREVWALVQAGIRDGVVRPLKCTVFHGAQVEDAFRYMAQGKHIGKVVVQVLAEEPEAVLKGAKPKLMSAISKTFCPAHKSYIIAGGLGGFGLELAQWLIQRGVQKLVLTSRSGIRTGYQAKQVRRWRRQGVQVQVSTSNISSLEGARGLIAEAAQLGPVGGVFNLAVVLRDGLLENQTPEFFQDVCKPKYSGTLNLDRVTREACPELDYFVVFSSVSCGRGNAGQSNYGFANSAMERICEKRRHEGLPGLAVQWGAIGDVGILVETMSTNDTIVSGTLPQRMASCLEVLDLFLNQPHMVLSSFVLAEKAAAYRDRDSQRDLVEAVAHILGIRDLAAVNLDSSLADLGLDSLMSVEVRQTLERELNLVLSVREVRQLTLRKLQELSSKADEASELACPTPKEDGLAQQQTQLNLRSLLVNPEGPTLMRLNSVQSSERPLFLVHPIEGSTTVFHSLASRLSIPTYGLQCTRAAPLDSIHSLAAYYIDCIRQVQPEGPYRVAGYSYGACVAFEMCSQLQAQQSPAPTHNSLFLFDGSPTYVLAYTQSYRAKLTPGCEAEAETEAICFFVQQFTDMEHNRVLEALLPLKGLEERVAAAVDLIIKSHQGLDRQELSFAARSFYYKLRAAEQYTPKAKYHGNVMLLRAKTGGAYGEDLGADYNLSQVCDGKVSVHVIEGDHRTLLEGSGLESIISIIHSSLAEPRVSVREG
Description: The FAS activity was determined spectrophotometrically at 37° C. in particle-free supernatants by measuring the decrease of absorption at 340 nm due to oxidation of NADPH.

CC1(C)C=C(CN2C/C(=C\c3ccc(F)cc3)C(=O)/C(=C/c3ccc(F)cc3)C2)C(C)(C)N1O [HO-3867, 1-[(1-oxyl-2,2,5,5-tetramethyl-2,5-dihydro-1H-pyrrol-3-yl)methyl]-(3E,5E)-3,5-bis(4-fluorobenzylidene)piperidin-4-one]
cell migration (A2780 and SKOV3 cells; 24 hours, versus untreated cells): significant inhibition
VEGF-induced migration (A2780 and SKOV3 cells; 24-h incubation, versus VEGF group): significantly inhibited
cell viability of noncancerous (healthy) human cell lines ([1]; 10 NM, 24-h incubation): significantly less toxic
viability of hOSE cells ([1]; same dose for both compounds): very little effect
cell viability of human cancer cell lines [2]: substantial loss of cell viability
cleaved caspase-3 and PARP in tumors ([3]; mouse, in vivo): significant induction
cyclin D1, VEGF, Bcl-2, and Survivin levels in tumors ([3]; mouse, in vivo): clear decrease
pJAK levels in tumor tissues ([3]; mouse, in vivo): did not observe any significant change
total JAK levels in tumor tissues ([3]; mouse, in vivo): clear downregulation
pSTAT3 Tyr705 and Ser727 levels in tumor tissue ([3]; without affecting total STAT3): decreased expressions
diminution of the DEPMPO-OOH concentration [4]: −50%
FAS activity [5]: significantly reduced

— patent US20120316203A1, “Compositions and Methods for Inhibition of Cancers” (THE OHIO STATE UNIVERSITY RESEARCH FOUNDATION, priority 2009, published 2012)
